# Source: patent US20250092065A1, “2-(INDAZOL-5-YL)-6-(PIPERIDIN-4-YL)-1,7-NAPHTHYRIDINE DERIVATIVES AND RELATED COMPOUNDS AS MODULATORS FOR SPLICING NUCLEIC ACIDS AND FOR THE TREATMENT OF PROLIFERATIVE DISEASES” (REMIX THERAPEUTICS INC., priority 2022, published 2025)
# What was measured:
# K562 cells = test: Cell Titer Glo 2.0 cell viability (toxicity) assay, K562; settings: 500 cells/well, 72 hours
# MYB = test: HiBiT protein abundance assay, MYB (K562 HiBiT knock-in); assay type: cell-based, human; settings: HiBiT knock-in K562 cells, 24 hours, top dose 10 μM
# Method in brief: (§1)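 Endogenously HiBiT-tagged K562 lines were treated for 24 h at 37 °C with 10-point 3-fold dilutions (top 10 μM final, DMSO ≤0.25%). Lytic LgBiT complementation luminescence was normalized between unmodified K562 (PC) and DMSO-treated tagged cells (NC); IC50 was interpolated at 50% from a four-parameter logistic fit.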
# HTT = test: HiBiT protein abundance assay, HTT (K562 HiBiT knock-in); assay type: cell-based, human; settings: HiBiT knock-in K562 cells, 24 hours, top dose 10 μM
# Method in brief: as §1
# Target C [1] = test: HiBiT protein abundance assay, Target C (K562 HiBiT knock-in); assay type: cell-based, human; settings: HiBiT knock-in K562 cells, 24 hours, top dose 10 μM
# Method in brief: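 K562 HiBiT knock-in cells (10000/well) were treated 24 h at 37° C with a 10-point 3-fold dilution series (top 10 μM final, ≤0.25% DMSO). HiBiT luminescence was read after lytic LgBiT detection. Percent response used unmodified K562 and DMSO-treated knock-in controls, and IC50 came from a four-parameter fit at 50% of untreated.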
# Target C [2] = test: RT-qPCR canonical junction panel assay, Target C mRNA; assay type: cell-based; settings: Table 4, read-out: Target C IC50 (decrease in CJ mRNA levels)
# Method in brief: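 IC50 is the concentration giving 50% CJ decrease, from a 4-parameter logistic fit of percent response; response derived from ΔΔCt against housekeeper and DMSO over a fixed ΔCt window, with canonical exon-junction qPCR in compound-treated K562 or A673 cells.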
SMILES,"Effect of Exemplary Compounds on Cell Viability, K562 (K562 cells)",IC50 (MYB),IC50 (HTT),IC50 (Target C [1]),IC50 (Target C [2])
"Cn1cc2cc(-c3ccc4nc(N5CCC(NCC6CC6)C5)ccc4n3)c(O)c(F)c2n1 (stereo not drawn) [Compound 387, 5-(6-{3-[(cyclopropylmethyl)amino]pyrrolidin-1-yl}-1,5-naphthyridin-2-yl)-7-fluoro-2-methylindazol-6-ol]",A (A represents <100 nM),< 100 nM,< 100 nM,< 100 nM,< 100 nM
"CC(C)NC1CCN(c2ccc3nc(-c4cc5cn(C)nc5c(F)c4O)ccc3n2)C1 (stereo not drawn) [Compound 388, 7-fluoro-5-{6-[3-(isopropylamino)pyrrolidin-1-yl]-1,5-naphthyridin-2-yl}-2-methylindazol-6-ol]",A (A represents <100 nM),< 100 nM,< 100 nM,< 100 nM,< 100 nM
"Cc1nc2cc(O)c(-c3ccc4nc(N5CCC(NCC6CC6)C5)ccc4n3)cc2o1 (stereo not drawn) [Compound 389, 6-(6-{3-[(cyclopropylmethyl)amino]pyrrolidin-1-yl}-1,5-naphthyridin-2-yl)-2-methyl-1,3-benzoxazol-5-ol]",B (B represents 100-1000 nM),< 100 nM,< 100 nM,< 100 nM,100 to 1000 nM
"Cc1nc2c(C)c(O)c(-c3ccc4nc(N5CCC(NCC6CC6)C5)ccc4n3)cc2o1 (stereo not drawn) [Compound 390, 6-(6-{3-[(cyclopropylmethyl)amino]pyrrolidin-1-yl}-1,5-naphthyridin-2-yl)-2,4-dimethyl-1,3-benzoxazol-5-ol]",A (A represents <100 nM),< 100 nM,< 100 nM,< 100 nM,< 100 nM
"CNC1CCN(c2ccc3nc(-c4cc(F)c5nc(C)cn5c4)ncc3n2)C1 (stereo not drawn) [Compound 393, 1-(2-{8-fluoro-2-methylimidazo[1,2-a]pyridin-6-yl}pyrido[3,2-d]pyrimidin-6-yl)-N-methylpyrrolidin-3-amine]",B (B represents 100-1000 nM),< 100 nM,100 to 1000 nM,100 to 1000 nM,100 to 1000 nM
"Cc1c(O)c(-c2ncc3nc(C4CCNC4)ccc3n2)cc2cn(C)nc12 (stereo not drawn) [Compound 397, 2,7-dimethyl-5-[6-(pyrrolidin-3-yl)pyrido[3,2-d]pyrimidin-2-yl]indazol-6-ol; trifluoroacetic acid]",B (B represents 100-1000 nM),100 to 1000 nM,1000 to 10000 nM,1000 to 10000 nM,> 10000 nM
Cc1c(O)c(-c2ncc3nc([C@H]4CCNC4)ccc3n2)cc2cn(C)nc12 [Compound 399],C (C represents 1000-9999 nM),1000 to 10000 nM,> 10000 nM,> 10000 nM,> 10000 nM
"Cn1cc2cc(-c3ncc4nc(C5CCNCC5)ccc4n3)c(O)c(C#N)c2n1 [Compound 403, 6-hydroxy-2-methyl-5-[6-(piperidin-4-yl)pyrido[3,2-d]pyrimidin-2-yl]indazole-7-carbonitrile; trifluoroacetic acid]",B (B represents 100-1000 nM),< 100 nM,100 to 1000 nM,100 to 1000 nM,1000 to 10000 nM
"Cn1cc2cc(-c3ccc4nc(N5CCC(NC(C)(C)C)C5)ncc4n3)c(O)cc2n1 (stereo not drawn) [Compound 404, 5-{2-[3-(tert-butylamino)pyrrolidin-1-yl]pyrido[3,2-d]pyrimidin-6-yl}-2-methylindazol-6-ol]",B (B represents 100-1000 nM),100 to 1000 nM,< 100 nM,< 100 nM,< 100 nM
"COc1cc(-c2ccc3nc(N4CCC(NC(C)(C)C)C4)ncc3n2)cnn1 (stereo not drawn) [Compound 405, N-tert-butyl-1-[6-(6-methoxypyridazin-4-yl)pyrido[3,2-d]pyrimidin-2-yl]pyrrolidin-3-amine]",C (C represents 1000-9999 nM),1000 to 10000 nM,1000 to 10000 nM,1000 to 10000 nM,1000 to 10000 nM
"CN[C@H]1CCN(c2ccc3nc(-c4cc(C#N)c5nc(C)cn5c4)ncc3n2)C1 [Compound 406, 2-methyl-6-{6-[(3S)-3-(methylamino)pyrrolidin-1-yl]pyrido[3,2-d]pyrimidin-2-yl}imidazo[1,2-a]pyridine-8-carbonitrile]",B (B represents 100-1000 nM),100 to 1000 nM,1000 to 10000 nM,1000 to 10000 nM,1000 to 10000 nM
"CN[C@@H]1CCN(c2ccc3nc(-c4cc(C#N)c5nc(C)cn5c4)ncc3n2)C1 [Compound 407, 2-methyl-6-{6-[(3R)-3-(methylamino)pyrrolidin-1-yl]pyrido[3,2-d]pyrimidin-2-yl}imidazo[1,2-a]pyridine-8-carbonitrile]",B (B represents 100-1000 nM),100 to 1000 nM,100 to 1000 nM,1000 to 10000 nM,1000 to 10000 nM
